Here are results for 90 compounds from a melting point compilation (Tetko et al.; mined from patent text by program, amines drawn as free bases though some values may be those of a salt).

`O=C1c2ccccc2COc2ccc(CC(=O)N(O)C3CCCCC3)cc21`: the melting point (commonly the temperature, or range, at which the solid turns liquid) lay in the range of 130 to 131 °C. `CCCOc1ccccc1-c1nc2nc(NCC(C)O)ncc2c(=O)[nH]1` (stereo not given): the melting point was in the range of 212 to 214 °C. On to `CS(=O)(=O)c1nccc(-n2ncc3ccccc32)n1`, for which the melting point lay within 177 to 181 °C. `CCOC(=O)c1cn(Cc2ccccc2)nc1OCc1ccc(OCc2nc(-c3ccccc3)oc2C)cc1`: the melting point lay within 99 to 100 °C. `COCCNc1nccc(Oc2ccc(NC(=O)c3cc(F)cc(N4CCCCC4)c3)c3ccccc23)n1` had a melting point of 87 to 88 °C. Regarding `O=C(c1cncc(Br)c1)N1CCC(c2ccccc2)=N1`, the melting point lay within 113 to 115 °C. `CC#CCOc1ccc(S(=O)(=O)C2(C(=O)O)CCOCC2)cc1` came in with a melting point of 197 °C.

Compound `CC(C)(C)n1nnc(-c2ccccc2-c2ccc(C=O)cc2)n1` yielded a melting point of 71 to 73 °C. With `CC1(CN)CCN(c2c(F)cc3c(=O)c(C(=O)O)cn(C4CC4)c3c2Cl)C1` (stereo not given), the melting point is 189 to 191 °C. The same measure for `Clc1cccc(-c2cnn(-c3ccccn3)c2)c1`: 110 to 111 °C; for `O=C1CCCN1[C@@H]1c2cc(C(F)(F)F)ccc2OC(CF)(CF)[C@H]1O` (relative stereo): 186 to 187 °C; for `Cc1nc2c(OCc3ccccc3)nccn2c1C`: 104 to 110 °C. With `CC(=O)OCC1OC(n2c3ncccc3c3c4c(c5c6cccnc6[nH]c5c32)C(=O)N(CO)C4=O)C(OC(C)=O)C(OC(C)=O)C1OC(C)=O` (stereo not given), the melting point is greater than 300 °C.

Regarding `CC(=NO)c1ccccc1N`, the melting point is 55 to 60 °C.

`COC(=O)C1=C(N)C(C)SC1` (stereo not given) showed a melting point of 60 °C. With `O=C1Cc2cc(F)ccc2Sc2ccccc21` the figure was 98 to 100 °C; with `O=c1ccn(-c2cccc3c2OC(F)(F)O3)nc1-c1ccnn1-c1ccccc1`, 105 to 107 °C; with `COc1ccc2c(c1)C(=O)C(=Cc1nccs1)CO2`, 130 to 132 °C. Compound `CC(C)CN1c2ccccc2C(C)(C)C12C=Nc1cc(-c3ccc(N4CCCC4)cc3)c3ccccc3c1O2` (stereo not given) displayed a melting point of 242 to 245 °C.

`C1=C(c2ccccc2)c2ccccc2C1(Cc1ccncc1)Cc1ccncc1` gave a melting point greater than 250 °C. The compound `c1ccc(C2=Nc3ccccc3N3CCc4cccc2c43)cc1` returned a melting point of 141 to 143 °C. In turn, `Nc1cc(Oc2ccc(-c3ccc(Oc4cc(N)cc(C(F)(F)F)c4)cc3)cc2)cc(C(F)(F)F)c1` gave a melting point of 130 to 133 °C.

For the compound `Nc1ncccc1-c1nc2ccc(-c3cccnc3)nc2n1-c1ccc(CNC(=O)c2ccccc2)cc1`, the melting point fell in the range of 253 to 256 °C. `Cc1nc(-c2ncn3c2COC(=O)c2c(Cl)cccc2-3)no1`: the melting point is 253 to 255 °C. As for `CC(C)(C)OC(=O)N1CCN(c2nc(N)nc3nc(N)c(-c4ccccc4)nc23)CC1`, the melting point was 245 to 246 °C. For the compound `COc1cc2c3c(ccc(N)c3c1N)C(=O)N(O)C2=O`, the melting point was in the range of 317 to 318 °C. On to `CON=C(C(=O)O)c1cccs1`, for which the melting point was determined as 106 °C. With `COC(c1ccccc1)C(C)([N+](=O)[O-])[N+](=O)[O-]` (stereo not given) the figure was 53 to 55 °C; with `CSCC[C@H](NC(=O)[C@@H]1CCC(=O)N1)C(=O)N[C@@H](C)C(=O)N[C@H](C(=O)N[C@@H](CCCCN)C(=O)O)C(C)C`, 238 to 242 °C; with `CCOC(=O)C(C)(Cc1ccc([N+](=O)[O-])cc1)C(=O)OCC`, 59 to 61 °C.

`CCOC(=O)C1=C(C)NC(C)=C(C(=O)OCC)C1c1ccccc1[N+](=O)[O-]` had a melting point of 120 to 121 °C. `CCCCCCCCCc1ccc(C(=O)CC(=O)C(=O)OC)cc1` displayed a melting point of 52 to 53.5 °C. As for `CCOCC(=O)Nc1ccc(OC(=O)NC)cc1C`, the melting point fell in the range of 118 to 121 °C.

`CCOc1ccccc1C(=O)Nc1ccc(C(=O)N2CCC(F)(F)/C(=C\C(=O)N(C)C)c3ccccc32)cc1` gave a melting point of 195 to 198 °C. Consider `CCCCCN1N=C(c2ccc3c(c2)N(S(C)(=O)=O)CCO3)CCC1=O`, for which the melting point is 138 to 139 °C. The compound `CCOc1nc2cc(Cl)c(Cl)cc2nc1N` came in with a melting point of 191 to 193 °C. Regarding `COc1cc(N)c(Cl)cc1C(=O)NC1CCN(C(C)CC(C(=O)N(C)C)(c2ccccc2)c2ccccc2)CC1O` (stereo not given), the melting point worked out at 132 °C. `CNC(=O)C(CC(O)CO)N(CCN(CCN(CCN(CC(=O)O)C(CC(O)CO)C(=O)NC)CC(=O)O)CC(=O)O)CC(=O)O` (stereo not given) returned a melting point of 86 to 92 °C. Turning to `CC(NC(=O)NCCCCC1CCSS1)C(=O)O` (stereo not given), the melting point fell in the range of 131 to 134 °C. The same measure for `CC(=O)Nc1cc(Cl)cc(Cl)c1`: 182 °C. Compound `COc1ccc(F)cc1C(C)(C)CC(O)(Cn1cc(C)c(=O)c2ccccc21)C(F)(F)F` (stereo not given) showed a melting point greater than 225 °C. `O=C(O)c1cn(-c2cc([N+](=O)[O-])c(F)cc2F)c2cc(F)c(F)cc2c1=O` came in with a melting point greater than 270 °C.

`CC(=O)N1c2c(ccn3cc(C)nc23)C(=O)C(OC(=O)C(C)(C)C)C1c1ccccc1` (stereo not given) had a melting point of 168 to 169 °C. `CCC(=O)C(Cc1ccc(O)cc1)C(=O)CC` registered a melting point of 44 to 54 °C. For the compound `Cc1c(CC[Si](Cl)(Cl)Cl)c(CC[Si](Cl)(Cl)Cl)c(C)c(CC[Si](Cl)(Cl)Cl)c1CC[Si](Cl)(Cl)Cl`, the melting point fell in the range of 220 to 224 °C. As to `O=C(O)CS(=O)(=O)Nc1ccc(F)cc1C(F)(F)F`, the melting point lay within 120 to 121 °C. On to `Nc1ccc(NC(=O)CC(=O)c2ccccc2)cc1[N+](=O)[O-]`, for which the melting point lay within 182 to 183 °C.

`Clc1ncc(Cl)n2ccnc12` registered a melting point of 102 °C.

Regarding `O=[N+]([O-])C=C1SCCN1Cc1ccc(Cl)nc1`, the melting point was in the range of 177 to 179 °C.

With `CN(C)S(=O)(=O)c1cccc(NN)n1`, the melting point was in the range of 117 to 120 °C. With `O=CNCS(=O)(=O)c1ccc2ccccc2c1` the figure was 139 to 141 °C. With `CCN(CC)C(=O)n1nc(C(C)(C)C)cc1SC` the figure was 55 to 56 °C.

Turning to `c1cc(-c2cc3nccnc3[nH]2)ccn1`, the melting point is 324 to 326 °C.

`O=C(O)Cc1ccc2c(c1)C(=O)c1ccccc1CS2` displayed a melting point of 96 to 97 °C. For `CC(Oc1ccc(F)cc1F)(C(=O)Nc1nc(CC(=O)O)c(Cl)s1)c1ccc(S(C)(=O)=O)cc1` (stereo not given), the melting point lay within 109 to 111 °C. For `CCCCc1nc2c(N)nc3ccccc3c2n1CCCCNC(=O)Nc1cccc(NC(=O)NCCCCn2c(CCCC)nc3c(N)nc4ccccc4c32)c1`, the melting point lay within 160 to 166 °C. Take `COc1cccc(C2(C(N)=O)CCC3(CC2)OCCO3)c1`: the melting point fell in the range of 135 to 138 °C.

`Nc1c(Cl)cc2nc(O)c(O)nc2c1N`: the melting point was greater than 300 °C. In the case of `O=c1nc(NCc2ccccc2F)c(F)cn1-c1ccsc1`, the melting point is 75 to 78 °C. On to `O=C(CO)Cc1ccc(Cl)cc1`, for which the melting point was 53.5 °C. In turn, `CCCc1c(C(=O)C(C)C)c2ccc(C(=O)O)cc2n1Cc1ccccc1OC` returned a melting point of 190 to 191 °C. The same measure for `OCc1ccc(CO)c(Br)c1`: 104 °C; for `O=C1C[C@@H](NC(=O)OCc2ccccc2)C(=O)O1`: 126 to 127 °C; for `Clc1ccc2nc(-c3ccccc3)oc2n1`: 150 to 151 °C. For the compound `Cc1c(Cc2cc(Cl)cc(Cl)c2)c(C(=O)O)nn1CCO`, the melting point fell in the range of 241 to 242 °C.

`Nc1cc(-n2cc(C(=O)O)c(=O)c3cc(F)c(F)c(Cl)c32)ncc1F` registered a melting point of 280 °C. As for `CC(C)(C)OC(=O)NC1CCCCCC=CC2CC2(C(=O)NS(=O)(=O)C2CC2)NC(=O)C2CC(OC(=O)c3cccnc3)CN2C1=O` (stereo not given), the melting point fell in the range of 157 to 159 °C. `CS(=O)(=O)c1nc(Cl)cc(OCc2ccccc2)n1` gave a melting point of 74 to 77 °C. As for `N#Cc1cc(N)ccc1N1CCC(N2CCSCC2)CC1`, the melting point was determined as 138 °C. The compound `Cc1ccccc1-c1nccc2c(CC(=O)O)cccc12` had a melting point of 192 °C.

`Cc1ccc(C(=O)c2ccc(O)cc2)cc1O` gave a melting point of 174 to 175 °C. The compound `O=C(CCCN1CCN(c2ccc(F)cc2)CC1)NC1c2ccccc2C=Cc2ccccc21` returned a melting point of 233 to 235 °C. `Cc1noc(C)c1CON1C(=O)c2ccccc2C1=O` returned a melting point of 144 to 146 °C. The compound `CCOC(=O)C1COc2ccc(NC(C)=O)cc2O1` (stereo not given) registered a melting point of 138 to 140 °C. `COc1ccc(-n2nc(C(F)F)cc2-c2ccc(SC)cc2)cc1` showed a melting point of 100 to 101 °C. Compound `CCc1nnc2c(NC3CCC3)nc3ccccc3n12` showed a melting point of 215 to 217 °C.

`COc1ccc(-c2ccccc2C#N)cc1` displayed a melting point of 82 to 83 °C. `COc1ccc(Cc2cnc(NCCCCc3ncc(Br)cc3C)[nH]c2=O)cc1` registered a melting point of 149 to 150 °C. For the compound `CC(C)=CC(O)C(Cl)(Cl)Cl` (stereo not given), the melting point is 83 °C.

`COC(=O)[C@H]1CC[C@H](Oc2ccc(C(=O)O)cc2)CC1` came in with a melting point of 162 °C. Compound `CCCCCS(=O)(=O)NC(=O)/C=C/c1ccc(OCCOC)cc1Oc1cc(C(F)(F)F)ccc1[N+](=O)[O-]` came in with a melting point of 164 to 165 °C. For `BrCCCCCc1nc2ccccc2[nH]1`, the melting point was 134 to 136 °C. `O=C1NCCc2cc(O)ccc21`: the melting point was in the range of 204 to 206 °C. In the case of `CCCn1cccc1C(N)=S`, the melting point lay within 88 to 91 °C. For `Cc1ccc(-c2c(-c3ccc(S(C)(=O)=O)cc3)[nH]c3ccccc23)cc1C`, the melting point lay in the range of 206 to 207 °C. The same measure for `COc1cc(CO)c([N+](=O)[O-])cc1OCCCCCCOC(C)=O`: greater than 220 °C; for `O=C(C1=NC=CC(Br)(C(=O)Nc2ccccc2)C1)c1ccccc1` (stereo not given): 137 to 138 °C; for `Cc1ccn(-c2cncc(F)c2)n1`: 70 to 72 °C.

Regarding `CCCCCS(=O)(=O)NC(=O)/C=C/c1ccc(OCC(COC(C)C)OC(C)=O)cc1Oc1ncc(C(F)(F)F)cc1Cl` (stereo not given), the melting point was 101 to 103 °C. In the case of `O=c1nc(-c2ccccn2)sc2ncccc12`, the melting point came to 235 °C.
